Assay results as given in patent US7785828B1 (priority 2003, dated 2010).

Assays:
Assay type in all cases: cell-based
Mycosphaerella fijiensis = tested on: Mycosphaerella fijiensis
Septoria tritici = tested on: Septoria tritici
Fusarium graminearum = tested on: Fusarium graminearum

Sequence | Antifungal activity, Mycosphaerella fijiensis (improvement compared to DmAMP1) (Mycosphaerella fijiensis) | Antifungal activity, Septoria tritici (improvement compared to DmAMP1) (Septoria tritici) | Antifungal activity, Fusarium graminearum (improvement compared to DmAMP1) (Fusarium graminearum)
NLCEKASKTWSGNCGNTKHCDNQCKNWEGAAHGACHVRNGKHKCFCYFNC (Defensin like) [L6-70] | + (key: + indicating 1- to 5-fold improvement compared to DmAMP1; ++ indicating >5- to 10-fold improvement; +++ indicating >10-fold improvement) | + (key: + indicating 1- to 5-fold improvement compared to DmAMP1; ++ indicating >5- to 10-fold improvement; +++ indicating >10-fold improvement) | +++ (key: + indicating 1- to 5-fold improvement compared to DmAMP1; ++ indicating >5- to 10-fold improvement; +++ indicating >10-fold improvement)
NLCEKASKTWTGNCGNTKHCDTQCRNWEGAKHGACHKRNGKWKCFCYFNC (Defensin like) [L6-32] | +++ (key: + indicating 1- to 5-fold improvement compared to DmAMP1; ++ indicating >5- to 10-fold improvement; +++ indicating >10-fold improvement) | +++ (key: + indicating 1- to 5-fold improvement compared to DmAMP1; ++ indicating >5- to 10-fold improvement; +++ indicating >10-fold improvement) | +++ (key: + indicating 1- to 5-fold improvement compared to DmAMP1; ++ indicating >5- to 10-fold improvement; +++ indicating >10-fold improvement)
DGVKLCERASQTWTGHCGNTKHCDNQCRSWEGAAHGACHKRSGKWKCFCYFNC (Defensin like) [L7-82] | +++ (key: + indicating 1- to 5-fold improvement compared to DmAMP1; ++ indicating >5- to 10-fold improvement; +++ indicating >10-fold improvement) | + (key: + indicating 1- to 5-fold improvement compared to DmAMP1; ++ indicating >5- to 10-fold improvement; +++ indicating >10-fold improvement) | ++ (key: + indicating 1- to 5-fold improvement compared to DmAMP1; ++ indicating >5- to 10-fold improvement; +++ indicating >10-fold improvement)
DGVKLCERPSKTWSGNCGNTKHCDKQCKNWEKAKHGACHVRNGKWKCFCYFNC (Defensin like) [L7-112] | + (key: + indicating 1- to 5-fold improvement compared to DmAMP1; ++ indicating >5- to 10-fold improvement; +++ indicating >10-fold improvement) | + (key: + indicating 1- to 5-fold improvement compared to DmAMP1; ++ indicating >5- to 10-fold improvement; +++ indicating >10-fold improvement) | + (key: + indicating 1- to 5-fold improvement compared to DmAMP1; ++ indicating >5- to 10-fold improvement; +++ indicating >10-fold improvement)
NLCERASKTWSGNCGNTKHCDTQCKNWEGAKHGACHVRNGKHKCFCYFNC (Defensin like) [L6-83] | + (key: + indicating 1- to 5-fold improvement compared to DmAMP1; ++ indicating >5- to 10-fold improvement; +++ indicating >10-fold improvement) | + (key: + indicating 1- to 5-fold improvement compared to DmAMP1; ++ indicating >5- to 10-fold improvement; +++ indicating >10-fold improvement) | +++ (key: + indicating 1- to 5-fold improvement compared to DmAMP1; ++ indicating >5- to 10-fold improvement; +++ indicating >10-fold improvement)
NLCEKASKTWSGNCGNTKHCDTQCKSWEGAKHGACHVRNGKHKCFCYFNC (Defensin like) [L5-13] | + (key: + indicating 1- to 5-fold improvement compared to DmAMP1; ++ indicating >5- to 10-fold improvement; +++ indicating >10-fold improvement) | +++ (key: + indicating 1- to 5-fold improvement compared to DmAMP1; ++ indicating >5- to 10-fold improvement; +++ indicating >10-fold improvement) | +++ (key: + indicating 1- to 5-fold improvement compared to DmAMP1; ++ indicating >5- to 10-fold improvement; +++ indicating >10-fold improvement)
NLCERASKTWSGNCGNTKHCDTQCKSWEGAKHGACHVRNGKHKCFCYFNC (Defensin like) [L9-26] | ++ (key: + indicating 1- to 5-fold improvement compared to DmAMP1; ++ indicating >5- to 10-fold improvement; +++ indicating >10-fold improvement) | +++ (key: + indicating 1- to 5-fold improvement compared to DmAMP1; ++ indicating >5- to 10-fold improvement; +++ indicating >10-fold improvement) | +++ (key: + indicating 1- to 5-fold improvement compared to DmAMP1; ++ indicating >5- to 10-fold improvement; +++ indicating >10-fold improvement)
NLCERASKTWSGNCGNTKHCDTQCRSWEGAAHGACHKRNGKWKCFCYFNC (Defensin like) [L9-14] | + (key: + indicating 1- to 5-fold improvement compared to DmAMP1; ++ indicating >5- to 10-fold improvement; +++ indicating >10-fold improvement) | + (key: + indicating 1- to 5-fold improvement compared to DmAMP1; ++ indicating >5- to 10-fold improvement; +++ indicating >10-fold improvement) | ++ (key: + indicating 1- to 5-fold improvement compared to DmAMP1; ++ indicating >5- to 10-fold improvement; +++ indicating >10-fold improvement)
NLCEKASKTWSGNCGNTKHCDTQCRNWEGAKHGACHVRNGKHKCFCYFNC (Defensin like) [L6-13] | ++ (key: + indicating 1- to 5-fold improvement compared to DmAMP1; ++ indicating >5- to 10-fold improvement; +++ indicating >10-fold improvement) | +++ (key: + indicating 1- to 5-fold improvement compared to DmAMP1; ++ indicating >5- to 10-fold improvement; +++ indicating >10-fold improvement) | +++ (key: + indicating 1- to 5-fold improvement compared to DmAMP1; ++ indicating >5- to 10-fold improvement; +++ indicating >10-fold improvement)
NLCEKASKTWTGNCGNTKHCDTQCKNWEGAKHGACHKRNGKWKCFCYFNC (Defensin like) [L9-45] | + (key: + indicating 1- to 5-fold improvement compared to DmAMP1; ++ indicating >5- to 10-fold improvement; +++ indicating >10-fold improvement) | + (key: + indicating 1- to 5-fold improvement compared to DmAMP1; ++ indicating >5- to 10-fold improvement; +++ indicating >10-fold improvement) | + (key: + indicating 1- to 5-fold improvement compared to DmAMP1; ++ indicating >5- to 10-fold improvement; +++ indicating >10-fold improvement)
NLCERASKTWSGNCGNTKHCDTQCRNWEGAKHGACHKRSGKWKCFCYFNC (Defensin like) [L9-09] | + (key: + indicating 1- to 5-fold improvement compared to DmAMP1; ++ indicating >5- to 10-fold improvement; +++ indicating >10-fold improvement) | + (key: + indicating 1- to 5-fold improvement compared to DmAMP1; ++ indicating >5- to 10-fold improvement; +++ indicating >10-fold improvement) | +++ (key: + indicating 1- to 5-fold improvement compared to DmAMP1; ++ indicating >5- to 10-fold improvement; +++ indicating >10-fold improvement)
NLCEKASKTWSGNCGNTKHCDTQCRNWEGAKHGACHKRNGKWKCFCYFNC (Defensin like) [L9-46] | ++ (key: + indicating 1- to 5-fold improvement compared to DmAMP1; ++ indicating >5- to 10-fold improvement; +++ indicating >10-fold improvement) | +++ (key: + indicating 1- to 5-fold improvement compared to DmAMP1; ++ indicating >5- to 10-fold improvement; +++ indicating >10-fold improvement) | +++ (key: + indicating 1- to 5-fold improvement compared to DmAMP1; ++ indicating >5- to 10-fold improvement; +++ indicating >10-fold improvement)
NLCERASKTWTGNCGNTKHCDNQCKSWEGAAHGACHVRSGKHKCFCYFNC (Defensin like) [L6-39] | + (key: + indicating 1- to 5-fold improvement compared to DmAMP1; ++ indicating >5- to 10-fold improvement; +++ indicating >10-fold improvement) | ++ (key: + indicating 1- to 5-fold improvement compared to DmAMP1; ++ indicating >5- to 10-fold improvement; +++ indicating >10-fold improvement) | +++ (key: + indicating 1- to 5-fold improvement compared to DmAMP1; ++ indicating >5- to 10-fold improvement; +++ indicating >10-fold improvement)
NLCERASKTWSGNCGNTKHCDTQCRNWEGAKHGACHKRNGKWKCFCYFNC (Defensin like) [L9-32] | + (key: + indicating 1- to 5-fold improvement compared to DmAMP1; ++ indicating >5- to 10-fold improvement; +++ indicating >10-fold improvement) | + (key: + indicating 1- to 5-fold improvement compared to DmAMP1; ++ indicating >5- to 10-fold improvement; +++ indicating >10-fold improvement) | ++ (key: + indicating 1- to 5-fold improvement compared to DmAMP1; ++ indicating >5- to 10-fold improvement; +++ indicating >10-fold improvement)
NLCEKASKTWTGNCGNTKHCDTQCKSWEGAKHGACHKRNGKWKCFCYFNC (Defensin like) [L5-22] | + (key: + indicating 1- to 5-fold improvement compared to DmAMP1; ++ indicating >5- to 10-fold improvement; +++ indicating >10-fold improvement) | ++ (key: + indicating 1- to 5-fold improvement compared to DmAMP1; ++ indicating >5- to 10-fold improvement; +++ indicating >10-fold improvement) | ++ (key: + indicating 1- to 5-fold improvement compared to DmAMP1; ++ indicating >5- to 10-fold improvement; +++ indicating >10-fold improvement)
DGVKLCEKASQTWSGHCGNTKHCDNQCKNWEGAKHGACHKRNGKWKCFCYFNC [L7-350] (Defensin like) | + (key: + indicating 1- to 5-fold improvement compared to DmAMP1; ++ indicating >5- to 10-fold improvement; +++ indicating >10-fold improvement) | + (key: + indicating 1- to 5-fold improvement compared to DmAMP1; ++ indicating >5- to 10-fold improvement; +++ indicating >10-fold improvement) | + (key: + indicating 1- to 5-fold improvement compared to DmAMP1; ++ indicating >5- to 10-fold improvement; +++ indicating >10-fold improvement)
